Test results from PMC10535741, “Styrylpyridinium Derivatives for Fluorescent Cell Imaging” (Pharmaceuticals, 2023).
Where “and” joins values, the source holds several entries; their conditions need not be identical. Identical values can stand only once.

Assays:
[1] = Self-assembling properties by dynamic light scattering (DLS); assay type: physicochemical; settings: 0.1 mM in aqueous medium, ethanol injection, freshly prepared
Protocol: The estimation of self-assembling properties for the selected compounds was performed using dynamic light scattering (DLS) measurements. The values for the polydispersity index (PDI) and the hydrodynamic average diameter (Dav) of nanoparticles formed by compounds 6a,c–e,g were determined (with a final compound concentration of 0.1 mM in the aqueous medium). The nanoparticles were prepared by the ethanol injection method via the dissolution of the compound in ethanol and after that by the dispersion of the solution into water. The approach is rapid, simple, and can be easily scaled up. This method was previously used successfully for the preparation and characterisation of lipid-like pyridinium amphiphiles. The DLS measurements were performed for freshly prepared samples at room temperature.
The self-assembling properties of the tested compounds were estimated according to a published procedure with minor modifications. Stock solutions of the compounds were prepared in EtOH at a concentration of 1 mM. Stock solutions of the compounds (0.3 mL) were injected into 2.7 mL of deionised water with maximum stirring (IKA Vortex 2 (IKA, Staufen, Germany)) to obtain a final concentration of 0.1 mM. The DLS measurements of the nanoparticles in the aqueous solution were conducted using a Zetasizer Nano ZSP (Malvern Panalytical Ltd., Malvern, UK) instrument with Malvern Instruments Ltd. Software 8.01.4906. The measurements were performed with the following settings—medium: water; refractive index: 1.33; viscosity: 0.8872 cP; temperature: 25 °C; dielectric constant: 78.5; nanoparticles: liposomes; refractive index of materials: 1.60; detection angle: 173° wavelength: 633 nm. The obtained data were analysed using the multimodal number distribution software provided with the instrument. To ensure reproducibility, the measurements were performed in triplicate.

[2] = UV/Vis absorption spectra in DMSO; assay type: physicochemical; settings: 0.33 mM for 6a,b,d,f,g, 5 mM for 6c,e
Protocol: The resonance structures of compounds 6d,e (Figure 2a) show a possibly intramolecular charge transfer between the julolidine moiety and the pyridinium unit. The normalised fluorescence spectra of the tested compounds 6a–e and 7a,b in DMSO solution (Figure 2c) and the fluorescence spectra of compound 6e in various media (Figure 2d) were measured using a spectrophotometer multiplate reader (Infinite M1000). The UV/Vis spectra in DMSO solution of compounds 6a–g (Figure 2b) were reordered with a UV/Vis spectrophotometer, and the fluorescence spectra of compound 6e in EtOH–glycerol mixtures (Figure 2e) were collected with a Spectrofluorometer FS5.
The spectral properties (absorption and fluorescence maximum in DMSO solution) of compounds 6a–e and 7a,b, UV spectral data (extinction coefficient (log ε) and absorption maximum), values of Stokes’ shift, and fluorescence quantum yield are presented in Table 3.

| SMILES | PDI (polydispersity index) [1] | abs. max., λ, nm [2] | log ε [2] | Dav, nm (average diameter of formed nanoparticles) [1] |
| --- | --- | --- | --- | --- |
| CCCCCCCCCCCC[n+]1ccc(C=Cc2cc(OC)c(OC)c(OC)c2)cc1.[Br-] [Compound 6a, 4-(3,4,5-trimethoxystyryl)-N-dodecylpyridinium bromide] | 0.331 ± 0.261 | 384 nm | 5.46 |  |
| CCCCCCCCCCCCCCCC[n+]1ccc(C=Cc2cc(OC)c(OC)c(OC)c2)cc1.[Br-] [Compound 6b] |  | 385 nm | 5.23 |  |
| CCCCCCCCCCCCCCCC[n+]1ccc(C=CC=Cc2ccc(OC)cc2)cc1.[Br-] [Compound 6c, 1-hexadecyl-4-(4-(4-methoxyphenyl)buta-1,3-dien-1-yl)pyridin-1-ium bromide] | 0.218 ± 0.026 | 408 nm | 4.26 | 212 nm and 212 ± 4 nm |
| CCCCCCCCCCCC[n+]1ccc(C=Cc2cc3c4c(c2)CCCN4CCC3)cc1.[Br-] [Compound 6d, 1-dodecyl-4-(2-(2,3,6,7-tetrahydro-1H,5H-pyrido[3,2,1-ij]quinolin-9-yl)vinyl)pyridin-1-ium bromide] | 0.286 ± 0.030 |  |  |  |
| CCCCCCCCCCCCCCCC[n+]1ccc(C=CC=Cc2cc3c4c(c2)CCCN4CCC3)cc1.[Br-] [Compound 6e, 1-hexadecyl-4-(4-(2,3,6,7-tetrahydro-1H,5H-pyrido[3,2,1-ij]quinolin-9-yl)buta-1,3-dien-1-yl)pyridin-1-ium bromide] | 0.260 ± 0.011 | 520 nm | 4.02 | 118 nm and 118 ± 4 nm |
